{
  "source": "ChEMBL document CHEMBL1201862",
  "about": "“PubChem BioAssay data set” (2004)",
  "assay_in_all_cases": "growth of human tumour cells (NCI), 48 h",
  "key": {"A549": {"system": "A549"}, "CCRF-CEM": {"system": "CCRF-CEM"}, "COLO 205": {"system": "COLO 205"}, "DMS-114": {"system": "DMS-114"}, "HCT-116": {"system": "HCT-116"}, "HCT-15": {"system": "HCT-15"}, "HT-29": {"system": "HT-29"}, "KM-20L2": {"system": "KM-20L2"}, "MCF7": {"system": "MCF7"}, "OVCAR-5": {"system": "OVCAR-5"}, "OVCAR-8": {"system": "OVCAR-8"}, "SF-539": {"system": "SF-539"}, "SK-MEL-5": {"system": "SK-MEL-5"}, "SK-OV-3": {"system": "SK-OV-3"}, "SNB-75": {"system": "SNB-75"}, "SW-620": {"system": "SW-620"}, "U-251": {"system": "U-251"}, "UACC-257": {"system": "UACC-257"}, "UO-31": {"system": "UO-31"}, "SR": {"system": "SR"}},
  "note": "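How tested: cells in 96-well plates exposed to compound for 48 hours at five concentrations. The concentration for 50% growth inhibition is given as GI50.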 Calls of active or inactive are those of the source. Cut-off read from the data, not from the text of the source: active = GI50 up to about 1.1 µM and inactive = higher.",
  "data": [
    {"smiles": "O=C1ON(Cc2ccccc2)C(c2ccccc2)N1c1ccccc1", "note": "(stereo unspecified)", "values": [
      {"measurement": "GI50", "setting": "A549", "value": "> 100 µM (inactive)"},
      {"measurement": "GI50", "setting": "CCRF-CEM", "value": "> 100 µM (inactive)"},
      {"measurement": "GI50", "setting": "COLO 205", "value": "> 100 µM (inactive)"},
      {"measurement": "GI50", "setting": "DMS-114", "value": "> 100 µM (inactive)"},
      {"measurement": "GI50", "setting": "HCT-116", "value": "> 100 µM (inactive)"},
      {"measurement": "GI50", "setting": "HCT-15", "value": "> 100", "unit": "µM"},
      {"measurement": "GI50", "setting": "HT-29", "value": "> 100 µM (inactive)"},
      {"measurement": "GI50", "setting": "KM-20L2", "value": "> 100 µM (inactive)"},
      {"measurement": "GI50", "setting": "MCF7", "value": "> 100 µM (inactive)"},
      {"measurement": "GI50", "setting": "OVCAR-5", "value": "> 100 µM (inactive)"},
      {"measurement": "GI50", "setting": "OVCAR-8", "value": "> 100 µM (inactive)"},
      {"measurement": "GI50", "setting": "SF-539", "value": "> 100 µM (inactive)"},
      {"measurement": "GI50", "setting": "SK-MEL-5", "value": "> 100 µM (inactive)"},
      {"measurement": "GI50", "setting": "SK-OV-3", "value": "> 100 µM (inactive)"},
      {"measurement": "GI50", "setting": "SNB-75", "value": "62.7 µM (inactive)"},
      {"measurement": "GI50", "setting": "SW-620", "value": "> 100 µM (inactive)"},
      {"measurement": "GI50", "setting": "U-251", "value": "> 100 µM (inactive)"},
      {"measurement": "GI50", "setting": "UACC-257", "value": "> 100 µM (inactive)"},
      {"measurement": "GI50", "setting": "UO-31", "value": "> 100 µM (inactive)"}
    ]},
    {"smiles": "O=NN1C(c2ccccc2)CCCC1c1ccccc1", "note": "(stereo unspecified)", "values": [
      {"measurement": "GI50", "setting": "A549", "value": "> 71 µM (inactive)"},
      {"measurement": "GI50", "setting": "CCRF-CEM", "value": "52.1 µM (inactive)"},
      {"measurement": "GI50", "setting": "COLO 205", "value": "50.8 µM (inactive)"},
      {"measurement": "GI50", "setting": "DMS-114", "value": "28.6 µM (inactive)"},
      {"measurement": "GI50", "setting": "HCT-116", "value": "47.9 µM (inactive)"},
      {"measurement": "GI50", "setting": "HCT-15", "value": 62.4, "unit": "µM"},
      {"measurement": "GI50", "setting": "HT-29", "value": "22.9 µM (inactive)"},
      {"measurement": "GI50", "setting": "KM-20L2", "value": "> 100 µM (inactive)"},
      {"measurement": "GI50", "setting": "MCF7", "value": "37.9 µM (inactive)"},
      {"measurement": "GI50", "setting": "OVCAR-5", "value": "> 100 µM (inactive)"},
      {"measurement": "GI50", "setting": "OVCAR-8", "value": "> 43.8 µM (inactive)"},
      {"measurement": "GI50", "setting": "SF-539", "value": "> 100 µM (inactive)"},
      {"measurement": "GI50", "setting": "SK-MEL-5", "value": "49.4 µM (inactive)"},
      {"measurement": "GI50", "setting": "SK-OV-3", "value": "31.9 µM (inactive)"},
      {"measurement": "GI50", "setting": "SNB-75", "value": "28.3 µM (inactive)"},
      {"measurement": "GI50", "setting": "SW-620", "value": "> 92.7 µM (inactive)"},
      {"measurement": "GI50", "setting": "U-251", "value": "75.5 µM (inactive)"},
      {"measurement": "GI50", "setting": "UACC-257", "value": "72.1 µM (inactive)"},
      {"measurement": "GI50", "setting": "UO-31", "value": "42.4 µM (inactive)"}
    ]},
    {"smiles": "CC(OC(C)(C)C)[C@H](NC(=O)OCC(Cl)(Cl)Cl)C(=O)O", "note": "(stereo partly specified)", "values": [
      {"measurement": "GI50", "setting": "A549", "value": "> 100 µM (inactive)"},
      {"measurement": "GI50", "setting": "CCRF-CEM", "value": "> 100 µM (inactive)"},
      {"measurement": "GI50", "setting": "COLO 205", "value": "> 100 µM (inactive)"},
      {"measurement": "GI50", "setting": "DMS-114", "value": "> 100 µM (inactive)"},
      {"measurement": "GI50", "setting": "HCT-116", "value": "> 100 µM (inactive)"},
      {"measurement": "GI50", "setting": "HCT-15", "value": "> 100", "unit": "µM"},
      {"measurement": "GI50", "setting": "HT-29", "value": "> 100 µM (inactive)"},
      {"measurement": "GI50", "setting": "KM-20L2", "value": "> 100 µM (inactive)"},
      {"measurement": "GI50", "setting": "OVCAR-5", "value": "> 100 µM (inactive)"},
      {"measurement": "GI50", "setting": "OVCAR-8", "value": "> 100 µM (inactive)"},
      {"measurement": "GI50", "setting": "SF-539", "value": "> 100 µM (inactive)"},
      {"measurement": "GI50", "setting": "SK-MEL-5", "value": "> 100 µM (inactive)"},
      {"measurement": "GI50", "setting": "SK-OV-3", "value": "> 100 µM (inactive)"},
      {"measurement": "GI50", "setting": "SNB-75", "value": "> 100 µM (inactive)"},
      {"measurement": "GI50", "setting": "SR", "value": "> 100 µM (inactive)"},
      {"measurement": "GI50", "setting": "SW-620", "value": "> 100 µM (inactive)"},
      {"measurement": "GI50", "setting": "U-251", "value": "> 100 µM (inactive)"},
      {"measurement": "GI50", "setting": "UACC-257", "value": "> 100 µM (inactive)"},
      {"measurement": "GI50", "setting": "UO-31", "value": "> 100 µM (inactive)"}
    ]},
    {"smiles": "O=S(=O)(O)c1ccc(/N=N\\c2ccc(/N=N/c3ccc(/C=C/c4ccc(/N=[N+](\\[O-])c5ccc(/C=C/c6ccc(/N=N/c7ccc(/N=N/c8ccc(S(=O)(=O)O)cc8)c8ccccc78)cc6S(=O)(=O)O)c(S(=O)(=O)O)c5)cc4S(=O)(=O)O)c(S(=O)(=O)O)c3)c3ccccc23)cc1", "values": [
      {"measurement": "GI50", "setting": "A549", "value": "> 89.1 µM (inactive)"},
      {"measurement": "GI50", "setting": "CCRF-CEM", "value": "> 100 µM (inactive)"},
      {"measurement": "GI50", "setting": "COLO 205", "value": "> 100 µM (inactive)"},
      {"measurement": "GI50", "setting": "DMS-114", "value": "> 100 µM (inactive)"},
      {"measurement": "GI50", "setting": "HCT-116", "value": "> 100 µM (inactive)"},
      {"measurement": "GI50", "setting": "HCT-15", "value": "> 100", "unit": "µM"},
      {"measurement": "GI50", "setting": "HT-29", "value": "> 100 µM (inactive)"},
      {"measurement": "GI50", "setting": "KM-20L2", "value": "> 100 µM (inactive)"},
      {"measurement": "GI50", "setting": "MCF7", "value": "> 100 µM (inactive)"},
      {"measurement": "GI50", "setting": "OVCAR-5", "value": "> 100 µM (inactive)"},
      {"measurement": "GI50", "setting": "OVCAR-8", "value": "> 100 µM (inactive)"},
      {"measurement": "GI50", "setting": "SF-539", "value": "> 84.7 µM (inactive)"},
      {"measurement": "GI50", "setting": "SK-MEL-5", "value": "> 100 µM (inactive)"},
      {"measurement": "GI50", "setting": "SK-OV-3", "value": "> 100 µM (inactive)"},
      {"measurement": "GI50", "setting": "SNB-75", "value": "50.7 µM (inactive)"},
      {"measurement": "GI50", "setting": "SW-620", "value": "> 100 µM (inactive)"},
      {"measurement": "GI50", "setting": "U-251", "value": "> 91.4 µM (inactive)"},
      {"measurement": "GI50", "setting": "UACC-257", "value": "> 100 µM (inactive)"},
      {"measurement": "GI50", "setting": "UO-31", "value": "57.4 µM (inactive)"}
    ]},
    {"smiles": "C[C@]12CCC(=O)C(O)=C1CC[C@@H]1[C@@H]2CC[C@]2(C)C(=O)CC[C@@H]12", "note": "[FORMESTANE]", "values": [
      {"measurement": "GI50", "setting": "A549", "value": "> 100 µM (inactive)"},
      {"measurement": "GI50", "setting": "CCRF-CEM", "value": "> 100 µM (inactive)"},
      {"measurement": "GI50", "setting": "COLO 205", "value": "> 100 µM (inactive)"},
      {"measurement": "GI50", "setting": "DMS-114", "value": "> 100 µM (inactive)"},
      {"measurement": "GI50", "setting": "HCT-116", "value": "> 93.1 µM (inactive)"},
      {"measurement": "GI50", "setting": "HCT-15", "value": "> 100", "unit": "µM"},
      {"measurement": "GI50", "setting": "HT-29", "value": "> 92.7 µM (inactive)"},
      {"measurement": "GI50", "setting": "KM-20L2", "value": "> 100 µM (inactive)"},
      {"measurement": "GI50", "setting": "MCF7", "value": "> 100 µM (inactive)"},
      {"measurement": "GI50", "setting": "OVCAR-5", "value": "> 100 µM (inactive)"},
      {"measurement": "GI50", "setting": "OVCAR-8", "value": "> 100 µM (inactive)"},
      {"measurement": "GI50", "setting": "SF-539", "value": "> 100 µM (inactive)"},
      {"measurement": "GI50", "setting": "SK-MEL-5", "value": "> 93.5 µM (inactive)"},
      {"measurement": "GI50", "setting": "SK-OV-3", "value": "> 100 µM (inactive)"},
      {"measurement": "GI50", "setting": "SNB-75", "value": "> 100 µM (inactive)"},
      {"measurement": "GI50", "setting": "SR", "value": "> 100 µM (inactive)"},
      {"measurement": "GI50", "setting": "SW-620", "value": "> 100 µM (inactive)"},
      {"measurement": "GI50", "setting": "U-251", "value": "> 100 µM (inactive)"},
      {"measurement": "GI50", "setting": "UACC-257", "value": "> 100 µM (inactive)"},
      {"measurement": "GI50", "setting": "UO-31", "value": "> 90.2 µM (inactive)"}
    ]}
  ]
}
